Values after ≈ are worked out from the molar mass of the structure shown.
Key:
M. tuberculosis 27294 = assay: In vitro agar dilution assay (MIC), reference strain; format: cell-based, Mycobacterium tuberculosis; conditions: for MIC against M. tuberculosis 27294: Middlebrook 7H10; for MIC: Mycobacterium tuberculosis, 27294, Middlebrook 7H10, read-out: MIC against M. tuberculosis 27294
[1] = system: M. tuberculosis clinical isolates, sensitive; assay: microbe, parasite or virus in culture; format: cell-based, Mycobacterium tuberculosis; conditions: for MIC against Clinical isolates Sensitive: Table I, agar dilution; for MIC: Mycobacterium tuberculosis, read-out: MIC against Clinical isolates Sensitive

Molecule | MIC against M. tuberculosis 27294 (M. tuberculosis 27294) | MIC against Clinical isolates Sensitive [1] | MIC (M. tuberculosis 27294) [µg/mL] | MIC [1] [µg/mL]
O=C(CCC(=O)c1ccccc1)NC[C@H]1CN(c2ccc(N3CCOCC3)c(F)c2)C(=O)O1 [Compound 1, (S)-N-[[3-(3-fluoro-4-morpholinylphenyl)-2-oxo-5-oxazolidinyl]methyl]-4-oxo-4-phenylbutanamide] | 16 µg/mL (≈ 35.1 µM) | 4 to 16 µg/mL | – | –
Cc1ccc(C(=S)CCC(=O)NC[C@H]2CN(c3ccc(N4CCOCC4)c(F)c3)C(=O)O2)cc1 [Compound 15, (S)-N-[[3-(3-fluoro-4-morpholinylphenyl)-2-oxo-5-oxazolidinyl]methyl]-4-(4-methylphenyl)-4-thiooxobutanamide] | >16 µg/mL | >16 µg/mL | – | –
CCCc1ccc(C(=O)CCC(=O)NC[C@H]2CN(c3ccc(N4CCCC4)c(F)c3)C(=O)O2)c(C)c1 [Compound 58, (S)-N-[[3-(3-fluoro-4-pyrrolidinylphenyl)-2-oxo-5-oxazolidinyl]methyl]-4-(2′-methyl-4-propylphenyl)-4-oxobutanamide] | 8 µg/mL (≈ 16.1 µM) | – | – | –
CC(=O)Nc1ccc(C(=O)CCC(=O)NC[C@H]2CN(c3ccc(N4CCCCC4)c(F)c3)C(=O)O2)cc1 [Compound 54, (S)-N-[[3-(3-fluoro-4-piperidylphenyl)-2-oxo-5-oxazolidinyl]methyl]-4-(4-acetamidophenyl)-4-oxobutanamide] | 8 µg/mL (≈ 15.7 µM) | 8 to 16 µg/mL | – | –
O=C(CCC(=O)c1ccc(Cl)cc1)NC[C@H]1CN(c2ccc(-c3nc[nH]n3)c(F)c2)C(=O)O1 [Compound 49, (S)-N-[[3-(3-fluoro-4-(1,2,4-triazolyl)phenyl)-2-oxo-5-oxazolidinyl]methyl]-4-(4-chlorophenyl)-4-oxobutanamide] | – | – | 4 (≈ 8.48 µM) | 4 to 16 (≈ 8.48 to 33.9 µM)
CC(=O)NC[C@H]1CN(c2ccc(N3CCOCC3)c(F)c2)C(=O)O1 [Linezolid, (S)-N-[[3-[3-fluoro-4-(4-morpholinyl)phenyl]-2-oxo-5-oxazolidin-yl]methyl]-acetamide, reference compound] | – | – | 0.5 (≈ 1.48 µM) | 0.25 to 0.5 (≈ 0.741 to 1.48 µM)
O=C(CCC(=O)c1cccs1)NC[C@H]1CN(c2ccc(N3CCCC3)c(F)c2)C(=O)O1 [Compound 28, (S)-N-[[3-(3-fluoro-4-pyrrolidinylphenyl)-2-oxo-5-oxazolidinyl]methyl]-4-oxo-4-(2-thienyl)butanamide] | 0.5 µg/mL (≈ 1.12 µM) | 1 to 2 µg/mL | – | –
O=C(CCC(=O)c1ccc(Cl)cc1)NC[C@H]1CN(c2ccc(N3CCOCC3)c(F)c2)C(=O)O1 [Compound 14, (S)-N-[[3-(3-fluoro-4-morpholinylphenyl)-2-oxo-5-oxazolidinyl]methyl]-4-(4-chlorophenyl)-4-oxobutanamide] | 0.25 µg/mL (≈ 0.51 µM) | 0.25 to 0.5 µg/mL | – | –
(S)-N-[[3-(3-fluoro-4-morpholinylphenyl)-2-oxo-5-oxazolidinyl]methyl]-4-[4-(2′,2′-dimethyl-4-ethylphenyl)-4-oxobutanamide [Compound 20] | 1 µg/mL | 1 to 2 µg/mL | – | –
O=C(CCC(=O)c1cccs1)NC[C@H]1CN(c2ccc(N3CCCCC3)c(F)c2)C(=O)O1 [Compound 52, (S)-N-[[3-(3-fluoro-4-piperidylphenyl)-2-oxo-5-oxazolidinyl]methyl]-4-oxo-4-(2-thienyl)butanamide] | 2 µg/mL (≈ 4.35 µM) | 2 µg/mL (≈ 4.35 µM) | – | –
O=C(CCC(=O)c1ccc2ccccc2c1)NC[C@H]1CN(c2ccc(-c3nc[nH]n3)c(F)c2)C(=O)O1 [Compound 48, (S)-N-[[3-(3-fluoro-4-(1,2,4-triazolyl)phenyl)-2-oxo-5-oxazolidinyl]methyl]-4-(2-naphthyl)-4-oxobutanamide] | – | – | 2 (≈ 4.1 µM) | 2 to 4 (≈ 4.1 to 8.21 µM)
CSc1ccc(C(=O)CCC(=O)NC[C@H]2CN(c3ccc(N4CCCC4)c(F)c3)C(=O)O2)cc1 [Compound 56, (S)-N-[[3-(3-fluoro-4-pyrrolidinylphenyl)-2-oxo-5-oxazolidinyl]methyl]-4-oxo-4-(4-thiomethylphenyl)butanamide] | >16 µg/mL | >16 µg/mL | – | –
O=C(CCC(=O)c1ccccc1)NC[C@H]1CN(c2ccc(N3CCSCC3)c(F)c2)C(=O)O1 [Compound 8, (S)-N-[[3-(3-fluoro-4-thiomorpholinylphenyl)-2-oxo-5-oxazolidinyl]methyl]-4-oxo-4-phenylbutanamide] | 2 µg/mL (≈ 4.24 µM) | .5 to 2 µg/mL | – | –
(S)-N-[[3-(3-fluoro-4-(1,2,4-triazolyl)phenyl)-2-oxo-5-oxazolidinyl]methyl]-4-(2′,2′-dimethyl-4-ethylphenyl)-4-oxobutanamide [Compound 45] | 2.0 µg/mL | 2 to 4 µg/mL | – | –
Cc1ccc(C(=O)CCC(=O)NC[C@H]2CN(c3ccc(-c4nc[nH]n4)c(F)c3)C(=O)O2)c(C)c1 [Compound 43, (S)-N-[[3-(3-fluoro-4-(1,2,4-triazolyl)phenyl)-2-oxo-5-oxazolidinyl]methyl]-4-(2,4-dimethylphenyl)-4-oxobutanamide] | – | – | 1 (≈ 2.15 µM) | 0.5 to 1 (≈ 1.07 to 2.15 µM)
CSc1ccc(C(=O)CCC(=O)NC[C@H]2CN(c3ccc(-n4cncn4)c(F)c3)C(=O)O2)cc1 [Compound 44, (S)-N-[[3-(3-fluoro-4-(1,2,4-triazolyl)phenyl)-2-oxo-5-oxazolidinyl]methyl]-4-oxo-4-(4-thiomethylphenyl)butanamide] | 1 µg/mL (≈ 2.07 µM) | 0.5 to 2 µg/mL | – | –
O=C(CCC(=O)c1cccs1)NC[C@H]1CN(c2ccc(N3CCOCC3)c(F)c2)C(=O)O1 [Compound 19, (S)-N-[[3-(3-fluoro-4-morpholinylphenyl)-2-oxo-5-oxazolidinyl]methyl]-4-oxo-4-(2-thienyl)butanamide] | 2 µg/mL (≈ 4.33 µM) | 1 to 2 µg/mL | – | –
CC(=O)Nc1ccc(C(=O)CCC(=O)NC[C@H]2CN(c3ccc(-c4nc[nH]n4)c(F)c3)C(=O)O2)cc1 [Compound 50, (S)-N-[[3-(3-fluoro-4-(1,2,4-triazolyl)phenyl)-2-oxo-5-oxazolidinyl]methyl]-4-(4-acetamidophenyl)-4-oxobutanamide] | – | – | 2 (≈ 4.04 µM) | 2 to 4 (≈ 4.04 to 8.09 µM)
O=C(CCC(=O)c1ccc(Cl)cc1)NC[C@H]1CN(c2ccc([N+]3([O-])CCOCC3)c(F)c2)C(=O)O1 [Compound 32, (S)-N-[[3-(3-fluoro-4-morpholinylphenyl)-2-oxo-5-oxazolidinyl]methyl]-4-(4-chlorophenyl)-4-oxobutanamide-N-oxide] | 0.25 µg/mL (≈ 0.494 µM) | 0.25 to 0.5 µg/mL | – | –
CCCc1ccc(C(=O)CCC(=O)NC[C@H]2CN(c3ccc(-c4nc[nH]n4)c(F)c3)C(=O)O2)c(C)c1 [Compound 46, (S)-N-[[3-(3-fluoro-4-(1,2,4-triazolyl)phenyl)-2-oxo-5-oxazolidinyl]methyl]-4-(2′-methyl-4-propylphenyl)-4-oxobutanamide] | – | – | 2 (≈ 4.05 µM) | 2 to 4 (≈ 4.05 to 8.1 µM)
O=C(CCC(=O)c1ccc2ccccc2c1)NC[C@H]1CN(c2ccc(N3CCOCC3)c(F)c2)C(=O)O1 [Compound 16, (S)-N-[[3-(3-fluoro-4-morpholinylphenyl)-2-oxo-5-oxazolidinyl]methyl]-4-(4-2-naphthyl)-4-oxobutanamide] | 0.5 µg/mL (≈ 0.989 µM) | 0.5 µg/mL (≈ 0.989 µM) | – | –
O=C(CCC(=O)c1ccc(F)cc1F)NC[C@H]1CN(c2ccc(N3CCOCC3)c(F)c2)C(=O)O1 [Compound 18, (S)-N-[[3-(3-fluoro-4-morpholinylphenyl)-2-oxo-5-oxazolidinyl]methyl]-4-(2,4-difluorophenyl)-4-oxobutanamide] | 4− μg/ml | 1 to 4 µg/mL | – | –
O=C(CCC(=O)c1cccs1)NC[C@H]1CN(c2ccc(-c3nc[nH]n3)c(F)c2)C(=O)O1 [Compound 47, (S)-N-[[3-(3-fluoro-4-(1,2,4-triazolyl)phenyl)-2-oxo-5-oxazolidinyl]methyl]-4-oxo-4-(2-thienyl)butanamide] | – | – | 1 (≈ 2.25 µM) | 1 to 2 (≈ 2.25 to 4.51 µM)
O=C(CCC(=O)c1ccc(F)cc1F)NC[C@H]1CN(c2ccc(-c3nc[nH]n3)c(F)c2)C(=O)O1 [Compound 51, (S)-N-[[3-(3-fluoro-4-(1,2,4-triazolyl)phenyl)-2-oxo-5-oxazolidinyl]methyl]-4-(2,4-difluorophenyl)-4-oxobutanamide] | – | – | 8 (≈ 16.9 µM) | –
O=C(CCC(=O)c1ccc(Cl)cc1)NC[C@H]1CN(c2ccc(-n3nnc4ccccc43)c(F)c2)C(=O)O1 [Compound 39, (S)-N-[[3-(3-fluoro-4-benzotriazolylphenyl)-2-oxo-5-oxazolidinyl]methyl]-4-(4-chlorophenyl)-4-oxobutanamide] | 2 µg/mL (≈ 3.83 µM) | 2 to 4 µg/mL | – | –
CC(C)Cc1ccc(C(=O)CCC(=O)NC[C@H]2CN(c3ccc(N4CCOCC4)c(F)c3)C(=O)O2)cc1 [Compound 17] | 0.5 µg/mL (≈ 0.977 µM) | 1.0 µg/mL (≈ 1.95 µM) | – | –
Cc1ccc(C(=O)CCC(=O)NC[C@H]2CN(c3ccc(-n4nnc5ccccc54)c(F)c3)C(=O)O2)c(C)c1 [Compound 27, (S)-N-[[3-(3-fluoro-4-benzotriazolylphenyl)-2-oxo-5-oxazolidinyl]methyl]-4-(2,4-dimethylphenyl)-4-oxobutanamide] | >16 µg/mL | >16 µg/mL | – | –
O=C(CCC(=O)c1ccc(Cl)cc1)NC[C@H]1CN(c2ccc(N3CCCCC3)c(F)c2)C(=O)O1 [Compound 36, (S)-N-[[3-(3-fluoro-4-piperidylphenyl)-2-oxo-5-oxazolidinyl]methyl]-4-(4-chlorophenyl)-4-oxobutanamide] | 4 µg/mL (≈ 8.2 µM) | 4 to 8 µg/mL | – | –
O=C(CCC(=O)c1ccc2ccccc2c1)NC[C@H]1CN(c2ccc(N3CCCC3)c(F)c2)C(=O)O1 [Compound 57, (S)-N-[[3-(3-fluoro-4-pyrrolidinylphenyl)-2-oxo-5-oxazolidinyl]methyl]-4-(2-naphthyl)-4-oxobutanamide] | 16 µg/mL (≈ 32.7 µM) | – | – | –

From patent US7691889B2, “Antimycobacterial compounds” (Lupin Limited, priority 2002, dated 2010)
